Where “and” joins values, the source holds several entries; their conditions need not be identical. Identical values can stand only once. Entries after “also recorded” stand apart in the source; their conditions may differ. Like-named read-outs stand apart in the source and are kept apart here.
What was measured:
SKMEL-5 melanoma = test: MTT cytotoxicity assay, SKMEL-5; details: Homo sapiens, SK-MEL-5, […], read-out: Cytotoxicity ED50, SKMEL-5
[1] = test system: five cancer cell cultures; test: MTT cytotoxicity assay, five cancer cell cultures taken together; details: for less cytotoxic than 1a and 5a: relative to 1a and 5a; for cytotoxicity (in words): five cancer cell lines
tubulin [2] = test: Inhibition of [3H]colchicine binding to tubulin (DEAE-filter); parameters: species or system bovine; details: for Colchicine binding % inhibition: 1 μM tubulin, 5 μM [3H]colchicine, 5 μM inhibitor, 10 min, 37° C.
[3] = test system: HT-29 colon adenocarcinoma; test: MTT cytotoxicity assay, HT-29; details: Homo sapiens, HT-29, […]
A-549 lung carcinoma = test: MTT cytotoxicity assay, A-549; details: Homo sapiens, A549, […]
MCF-7 breast carcinoma = test: MTT cytotoxicity assay, MCF-7; details: Homo sapiens, MCF7, […]
MLM melanoma = test: MTT cytotoxicity assay, MLM; details: […]
tubulin [4] = test: Inhibition of tubulin polymerization (turbidimetry); format: biochemical, bovine; details: for increase in IC50 / loss of activity in tubulin polymerization: relative to the parent 5a (8a, 5b) or 8a (12a)
OVCAR-3 ovarian cancer = test: Cytotoxicity, OVCAR-3; details: read-out: cytotoxicity GI50, OVCAR-3; 50% growth inhibition; average of two determinations; 8640 min
CAKI-1 renal cancer = test: Cytotoxicity, CAKI-1; details: read-out: cytotoxicity GI50, CAKI-1; 50% growth inhibition; average of two determinations; 8640 min
M14 melanoma = test: Cytotoxicity, M14; details: read-out: cytotoxicity GI50, M14; 50% growth inhibition; average of two determinations; 8640 min
[5] = test system: DMS 273 small cell lung cancer; test: Cytotoxicity, DMS 273; details: read-out: cytotoxicity GI50, DMS 273; 50% growth inhibition; average of two determinations; 8640 min
SF-295 CNS cancer = test: Cytotoxicity, SF-295; details: read-out: cytotoxicity GI50, SF-295; 50% growth inhibition; average of two determinations; 8640 min
[6] = read-out: cytotoxicity ED50, in at least three cell lines
[7] = read-out: Cytotoxicity ED50, HT-29
[8] = read-out: Cytotoxicity ED50, A-549
[9] = read-out: Cytotoxicity ED50, MCF-7
[10] = read-out: Cytotoxicity ED50, MLM
[11] = first series (Table VIII and text), 37° C., 20 min, read-out: Tubulin polymerization IC50 (±S.D.)
[12] = read-out: Cytotoxicity ED50, A-549, A-549, MTT, six days
[13] = read-out: Cytotoxicity ED50, MCF-7, MCF-7, MTT, six days
[14] = read-out: Cytotoxicity ED50, MLM, MLM, MTT, six days
[15] = Table X, different glutamate preparation (1M monosodium glutamate and GTP), read-out: inhibn of tubulin polymn IC50 (±SD)
[16] = read-out: cytotoxicity ED50, five cancer cell lines

SMILES	IC50 (SKMEL-5 melanoma) [nM]	Colchicine binding % inhibition (tubulin [2]) [%]	IC50 [3, 7] [nM]	IC50 (A-549 lung carcinoma; [8]) [nM]	IC50 (MCF-7 breast carcinoma; [9]) [nM]	IC50 (MLM melanoma; [10]) [nM]	inhibition of tubulin polymerization (in words) (tubulin [4])	IC50 (tubulin [4]; [11])	cytotoxicity (in words) [1]	other results
COc1cc(CCc2ccc(N(C)C)cc2)cc(OC)c1OC [compound 8n, 1-[4-(Dimethylamino)phenyl]-2-(3,4,5-trimethoxyphenyl)ethane]	59	31	77	83	64	120	only modest inhibitory effects on tubulin polymerization	29000 nM		IC50 [1, 6]: < 1000 nM
COc1cc(/C=C\c2ccc(Cl)cc2)cc(OC)c1OC [5g, (Z)-1-(4-Chlorophenyl)-2-(3,4,5-trimethoxyphenyl)ethene]	10	55	50	80	180	170	strong inhibitors of tubulin polymerization; also recorded: active as inhibitors of tubulin polymerization; also recorded: small reductions	4800 nM		IC50 ([1]; read-out: cytotoxicity ED50): < 100 nM; less cytotoxic than 1a and 5a [1]: about 1000 -fold
COc1cccc(/C=C\c2cc(OC)c(OC)c(OC)c2)c1 [compound 5b, (Z)-1-(3-Methoxyphenyl)-2-(3,4,5-trimethoxy-phenyl)ethene]	60	50					strong inhibitors of tubulin polymerization; also recorded: active as inhibitors of tubulin polymerization	8800 nM	decreased the activity drastically	IC50 ([1]; read-out: cytotoxicity ED50): < 1000 nM; IC50 ([3]; read-out: Cytotoxicity ED50, HT-29, HT-29, MTT, six days): 90 nM; IC50 (A-549 lung carcinoma; [12]): 130 nM; IC50 (MCF-7 breast carcinoma; [13]): 140 nM; IC50 (MLM melanoma; [14]): 1400 nM; increase in IC50 / loss of activity in tubulin polymerization (tubulin [4]): 4 -fold
CCc1ccc(N=Cc2cc(OC)c(OC)c(OC)c2)cc1 [108b, 4-Ethyl-N-(3,4,5-trimethoxybenzylidene)aniline]										GI50 (OVCAR-3 ovarian cancer): > 100000 nM; GI50 (CAKI-1 renal cancer): > 100000 nM; GI50 (M14 melanoma): > 100000 nM; GI50 [5]: > 100000 nM; GI50 (SF-295 CNS cancer): > 100000 nM; IC50 (tubulin [4]; [15]): > 40000 nM
COc1cc(/C=C\c2ccccc2)cc(OC)c1OC [compound 5f, (Z)-1-Phenyl-2-(3,4,5-trimethoxyphenyl)ethene]	120	14	84	170	250	> 25000		36000 nM	decreased the activity drastically	
COc1ccc(NCc2cc(OC)c(OC)c(OC)c2)cc1 [compound 12a, 3,4,5-Trimethoxy-N-(4-methoxyphenyl)benzylamine]	0.7	34	1	1.9	2.4	1.6	only modest inhibitory effects on tubulin polymerization	23000 nM	only an order of magnitude less cytotoxic than 8a	IC50 [1, 16]: ~1 nM; IC50 [1, 6]: < 1000 nM; increase in IC50 / loss of activity in tubulin polymerization (tubulin [4]): 3 -fold
COc1ccc(N=Cc2cc(OC)c(OC)c(OC)c2)cc1 [108c, 4-Methoxy-N-(3,4,5-trimethoxybenzylidene)aniline]										GI50 (OVCAR-3 ovarian cancer): > 100000 nM; GI50 (CAKI-1 renal cancer): > 100000 nM; GI50 [5]: 33000 nM; IC50 (tubulin [4]; [15]): > 40000 nM
COc1cc(/C=C\c2ccc(OC(C)=O)cc2)cc(OC)c1OC [compound 5p, (Z)-1-(4-Acetoxyphenyl)-2-(3,4,5-trimethoxyphenyl)ethene]	600	24	6000	1700	300	6300		29000 nM	decreased the activity drastically	
COc1cc(/C=C\c2ccc(Br)cc2)cc(OC)c1OC [5h, (Z)-1-(4-Bromophenyl)-2-(3,4,5-trimethoxyphenyl)ethene]	6.7	73	8.2	11	16	14	strong inhibitors of tubulin polymerization; also recorded: active as inhibitors of tubulin polymerization; also recorded: small reductions	3100 nM		IC50 ([1]; read-out: cytotoxicity ED50): < 100 nM; less cytotoxic than 1a and 5a [1]: about 1000 -fold
COc1ccc(CCc2cc(OC)c(OC)c(OC)c2)cc1 [compound 8a, 1-(4-Methoxyphenyl)-2-(3,4,5-trimethoxyphenyl)ethane]	0.14	65	0.25	0.18	0.16	0.18	strong inhibitors of tubulin polymerization	7900 nM	more cytotoxic than dihydrocombretastatin A-4 (1c) in all five cancer cell lines	IC50 [1, 16]: ~0.2 nM; IC50 [1, 6]: < 1000 nM; increase in IC50 / loss of activity in tubulin polymerization (tubulin [4]): ~4 -fold
COc1ccc(NCc2cc(OC)cc(OC)c2)cc1 [compound 12d]	2410	39	17800	5710	6080	> 25000		29000 nM		
COc1cc(/C=C\c2ccc(N(C)C)cc2)cc(OC)c1OC [compound 5n, (Z)-1-[4-(N,N-Dimethylamino)phenyl)-2-(3,4,5-trimethoxyphenyl)ethene]	0.15	83	8.1	4.1	5.8	9.4	strong inhibitors of tubulin polymerization; also recorded: small reductions	3400 nM and 3500 nM		IC50 [1, 16]: < 100 nM; IC50 [1, 6]: < 1000 nM
COc1ccc(CCc2cc(OC)c(OC)c(OC)c2)cc1O [compound 1c, reference compound]	2.1	79	8.1	10	330	10		3300 nM		inhibition of colchicine binding (in words) (tubulin [2]): inhibit the binding of radiolabeled colchicine to tubulin
COc1ccc(/C=C\c2cc(OC)c(OC)c(OC)c2)c(Cl)c1 [compound 5e]	17	73					strong inhibitors of tubulin polymerization; also recorded: active as inhibitors of tubulin polymerization; also recorded: small reductions	3500 nM	decreased the cytotoxicity	less cytotoxic than 1a and 5a [1]: about 1000 -fold; IC50 (A-549 lung carcinoma; [12]): 51 nM; IC50 (MCF-7 breast carcinoma; [13]): 46 nM; IC50 (MLM melanoma; [14]): 140 nM

— patent publication US5430062A, “Stilbene derivatives as anticancer agents” (priority 1993, dated 1995)
